Results: patent US11174232B2, “Substituted heterocyclyl derivatives as CDK inhibitors” (Aurigene Discovery Technologies Limited, priority 2015, dated 2021)
pIC50: −log10 of the molar value.

Target: CDK7/CycH/MNAT1 (Homo sapiens (Human), UniProt P50613)
Test: Biochemical Assay for CDK7 (TR-FRET kinase assay)
Settings: 60 min pre-incubation with kinase, 1 mM ATP; for inhibition at 10 µM / % inhibition @ 10 μM: 10 μM compound
Procedure, shortened: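 TR-FRET with 5 nM CDK7/CycH/MNAT1, compound pre-incubated 60 min at room temperature, then 100 nM ULight-MBP and 1 mM ATP for 60 min; stopped with EDTA, Eu anti-phospho-MBP read at 665/615 nm. 1% DMSO; IC50 from sigmoidal fit. Time-dependence tested with 20, 60, 180 min pre-incubation.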

CDK7/CycH/MNAT1, sequence (P50613 whole entry): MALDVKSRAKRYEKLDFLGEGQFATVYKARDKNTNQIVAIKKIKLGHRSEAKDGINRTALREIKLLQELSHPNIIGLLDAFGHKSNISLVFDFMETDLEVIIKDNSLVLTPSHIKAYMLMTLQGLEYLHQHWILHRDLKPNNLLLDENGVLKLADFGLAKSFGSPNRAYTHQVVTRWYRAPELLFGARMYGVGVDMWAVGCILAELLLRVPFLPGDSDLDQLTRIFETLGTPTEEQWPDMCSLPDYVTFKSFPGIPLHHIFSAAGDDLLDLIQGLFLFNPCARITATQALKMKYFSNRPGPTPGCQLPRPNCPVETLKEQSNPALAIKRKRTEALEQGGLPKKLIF
CDK7/CycH/MNAT1, sequence (P51946 whole entry partner): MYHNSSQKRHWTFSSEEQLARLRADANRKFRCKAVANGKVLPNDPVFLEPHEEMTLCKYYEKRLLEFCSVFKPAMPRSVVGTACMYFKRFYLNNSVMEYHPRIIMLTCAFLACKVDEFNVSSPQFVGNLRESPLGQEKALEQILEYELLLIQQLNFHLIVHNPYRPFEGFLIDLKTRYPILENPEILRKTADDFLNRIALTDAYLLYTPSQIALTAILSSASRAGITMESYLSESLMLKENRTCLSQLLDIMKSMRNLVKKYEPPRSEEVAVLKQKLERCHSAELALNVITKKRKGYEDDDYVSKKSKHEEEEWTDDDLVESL
CDK7/CycH/MNAT1, sequence (P51948 whole entry partner): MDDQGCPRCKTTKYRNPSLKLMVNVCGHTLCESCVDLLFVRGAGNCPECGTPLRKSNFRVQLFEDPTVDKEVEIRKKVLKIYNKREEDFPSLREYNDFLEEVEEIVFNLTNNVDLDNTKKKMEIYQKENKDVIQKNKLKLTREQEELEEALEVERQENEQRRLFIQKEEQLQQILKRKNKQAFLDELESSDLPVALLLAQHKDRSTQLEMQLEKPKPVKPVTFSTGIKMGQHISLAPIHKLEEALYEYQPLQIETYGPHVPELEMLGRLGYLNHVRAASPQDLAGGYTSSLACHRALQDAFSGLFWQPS

Compound	inhibition at 10 µM [%]	pIC50	% inhibition @ 10 μM [%]
CC(C(=O)Nc1cc(C2CC2)[nH]n1)c1cccc(-c2ccc(NC(=O)/C=C/CN3CCCCC3)cn2)c1 (centres unmarked) [Compound 39, (E)-N-(6-(3-(1-((5-cyclopropyl-1H-pyrazol-3-yl)amino)-1-oxopropan-2-yl)phenyl)pyridin-3-yl)-4-(piperidin-1-yl)but-2-enamide]	84	< 7.00	
CC(C(=O)Nc1cc(C2CC2)[nH]n1)c1cccc(-c2ccc(NC(=O)/C=C/CN3CCOCC3)nc2)c1 (centres unmarked) [Compound 10, (E)-N-(5-(3-(1-((5-cyclopropyl-1H-pyrazol-3-yl)amino)-1-oxopropan-2-yl)phenyl)pyridin-2-yl)-4-morpholinobut-2-enamide]	99	> 7.60	
C=CC(=O)Nc1ccc(-c2cccc(C(CC)C(=O)Nc3cc(C4CC4)[nH]n3)c2)nc1 (centres unmarked) [Compound 26, 2-(3-(5-acrylamidopyridin-2-yl)phenyl)-N-(5-cyclopropyl-1H-pyrazol-3-yl)butanamide]	96	> 7.60	
CC(C(=O)Nc1cc(C2CC2)[nH]n1)c1cccc(-c2ccc(NC(=O)/C=C/CN3CCOCC3)nc2)c1 (single isomer, unassigned) [Compound 11, (E)-N-(5-(3-(1-((5-cyclopropyl-1H-pyrazol-3-yl)amino)-1-oxopropan-2-yl)phenyl)pyridin-2-yl)-4-morpholinobut-2-enamide]		< 7.00	75
CC(C(=O)Nc1cc(C2CC2)[nH]n1)c1cccc(-c2ccc(NC(=O)/C=C/CN3CCCC3)c(F)c2)c1 (centres unmarked) [Compound 33, (E)-N-(3′-(1-((5-cyclopropyl-1H-pyrazol-3-yl)amino)-1-oxopropan-2-yl)-3-fluoro-[1,1′-biphenyl]-4-yl)-4-(pyrrolidin-1-yl)but-2-enamide]	97	7.00 to 7.60	
CC(C(=O)Nc1cc(C2CC2)[nH]n1)c1cccc(-c2ccc(NC(=O)/C=C/CN3CCC(F)C3)nc2)c1 (centres unmarked) [Compound 45, (E)-N-(5-(3-(1-((5-cyclopropyl-1H-pyrazol-3-yl)amino)-1-oxopropan-2-yl)phenyl)pyridin-2-yl)-4-(3-fluoropyrrolidin-1-yl)but-2-enamide]	89	> 7.60	
CC(C(=O)Nc1cc(C2CC2)[nH]n1)c1cccc(-c2ccc(NC(=O)/C=C/CN(C)C)cc2)c1 (single isomer, unassigned) [Compound 2, (E)-N-(3′-(1-((5-cyclopropyl-1H-pyrazol-3-yl)amino)-1-oxopropan-2-yl)-[1,1′-biphenyl]-4-yl)-4-(dimethylamino)but-2-enamide]		< 7.00	69
CC(C(=O)Nc1cc(C2CC2)[nH]n1)c1cccc(-c2ccc(NC(=O)/C=C/CN(C)C)cc2)c1 (single isomer, unassigned) [Compound 3, (E)-N-(3′-(1-((5-cyclopropyl-1H-pyrazol-3-yl)amino)-1-oxopropan-2-yl)-[1,1′-biphenyl]-4-yl)-4-(dimethylamino)but-2-enamide]		7.00 to 7.60	99
CC(C(=O)Nc1cc(C2CC2)[nH]n1)c1cccc(-c2ccc(NC(=O)/C=C/CN3CCOCC3)nc2F)c1 (centres unmarked) [Compound 59, (E)-N-(5-(3-(1-((5-cyclopropyl-1H-pyrazol-3-yl)amino)-1-oxopropan-2-yl)phenyl)-6-fluoropyridin-2-yl)-4-morpholinobut-2-enamide]	99	7.00 to 7.60	

Further lines, results first:

inhibition at 10 µM [%]	pIC50	% inhibition @ 10 μM [%]	Compound
100	7.00 to 7.60		COC(=O)[C@@H]1CCCN1C/C=C/C(=O)Nc1ccc(-c2cccc(C(C)C(=O)Nc3cc(C4CC4)[nH]n3)c2)cn1 (stereo partly drawn) [Compound 81, methyl ((E)-4-((5-(3-(1-((5-cyclopropyl-1H-pyrazol-3-yl)amino)-1-oxopropan-2-yl)phenyl)pyridin-2-yl)amino)-4-oxobut-2-en-1-yl)-L-prolinate]
74	< 7.00		CC(C(=O)Nc1cc(C2CC2)[nH]n1)c1cccc(C2CCN(C(=O)/C=C/CN(C)C)CC2)c1 (centres unmarked) [Compound 85, (E)-N-(5-cyclopropyl-1H-pyrazol-3-yl)-2-(3-(1-(4-(dimethylamino)but-2-enoyl)piperidin-4-yl)phenyl)propanamide]
48			C=CC(=O)Nc1ccc(-c2cccc(CC(=O)Nc3cc(C)[nH]n3)c2)cc1 [Compound 86, N-(3′-(2-((5-Methyl-1H-pyrazol-3-yl)amino)-2-oxoethyl)-[1,1′-biphenyl]-4-yl)acrylamide]
98	7.00 to 7.60		COC[C@@H]1C[C@H](F)CN1C/C=C/C(=O)Nc1ccc(-c2cccc(C(C)C(=O)Nc3cc(C4CC4)[nH]n3)c2)cn1 (stereo partly drawn) [Compound 77, (E)-N-(5-(3-(1-((5-cyclopropyl-1H-pyrazol-3-yl)amino)-1-oxopropan-2-yl)phenyl)pyridin-2-yl)-4-((2S,4S)-4-fluoro-2-(methoxymethyl)pyrrolidin-1-yl)but-2-enamide]
94	7.00 to 7.60		CC(C(=O)Nc1cc(C2CC2)[nH]n1)c1cccc(-c2ccc(NC(=O)/C=C/CN3CCC(F)C3)c(F)n2)c1 (centres unmarked) [Compound 64, (E)-N-(6-(3-(1-((5-cyclopropyl-1H-pyrazol-3-yl)amino)-1-oxopropan-2-yl)phenyl)-2-fluoropyridin-3-yl)-4-(3-fluoropyrrolidin-1-yl)but-2-enamide]
91	< 7.00		C=CC(=O)Nc1ccc(-c2cccc(C(C)C(=O)Nc3cc(C4CC4)[nH]n3)c2)c(OC)c1 (centres unmarked) [Compound 73, N-(3′-(1-((5-cyclopropyl-1H-pyrazol-3-yl)amino)-1-oxopropan-2-yl)-2-methoxy-[1,1′-biphenyl]-4-yl)acrylamide]
